The target in data set [1] is T1, FMDV 3Cpro (Foot-and-mouth disease virus A, UniProt A0A097I315). Put plainly: cell-based. Also on record: species or system FMDV A/IND287/96 strain. To be noted: Cell-based assay (EC50).
In data set [2] the target is T1, FMDV 3Cpro. Kind of data set: biochemical. Also on record: species or system FMDV A/IND287/96 strain (serotype A). To be noted: FRET assay (IC50).
The nature of a further data set: in vitro. To be noted: human.
A further data set relates to FMDV. To be noted: cited from earlier work.

Each structure is given as a SMILES string.

As to `CC(C)C[C@H](NC(=O)OC[C@@H]1C[C@H]1C1CCC(F)(F)CC1)C(=O)N[C@@H](C[C@H]1CCNC1=O)C(O)S(=O)(=O)O` (stereo partly shown) [Compound C17d], the EC50 at FMDV 3Cpro [1] was more than 10000 nM. The molecule also gave an IC50 at FMDV 3Cpro [2] of 750 ± 90 nM. In addition, the CC50 in the data set “in vitro” was more than 50000 nM.
The like results for `CC(C)C[C@H](NC(=O)OCC(C)(C)Sc1ccccc1)C(=O)N[C@@H](C[C@@H]1CCNC1=O)C(=O)C(=O)NC1CC1` [Compound D1e] were, in that order, 5000 ± 280 nM, 3750 ± 70 nM and more than 50000 nM.
The like results for `CC(C)C[C@H](NC(=O)OCC(C)(C)Sc1ccccc1)C(=O)N[C@H](C#N)C[C@@H]1CCNC1=O` [Compound D1f] were, in that order, more than 10000 nM, more than 25000 nM and more than 50000 nM.
For `[2H]C([2H])(OC(=O)N[C@@H](CC(C)C)C(=O)N[C@H](C=O)C[C@@H]1CCNC1=O)C(C)(C)Sc1ccccc1` [Compound D2c], in that order: 2500 ± 420 nM, 1520 ± 20 nM and more than 50000 nM.
As to `[2H]C([2H])(OC(=O)N[C@@H](CC(C)C)C(=O)N[C@@H](C[C@@H]1CCNC1=O)C(O)S(=O)(=O)[O-])C(C)(C)Sc1ccccc1.[Na+]` (stereo partly shown) [Compound D2d], on FMDV 3Cpro [1], the response was half-maximal at 2910 ± 430 nM (EC50). The molecule also had an IC50 against FMDV 3Cpro [2] of 1150 ± 70 nM. In addition, the CC50 in the data set “in vitro” was more than 50000 nM.
For `CC(C)C[C@H](NC(=O)OCC(C)(C)[S+]([O-])c1ccccc1)C(=O)N[C@H](C=O)C[C@@H]1CCNC1=O` (stereo partly shown) [Compound D3c], in that order: more than 10000 nM, 1140 ± 80 nM and more than 50000 nM.
The like results for `CC(C)C[C@H](NC(=O)OCC(C)(C)[S+]([O-])c1ccccc1)C(=O)N[C@@H](C[C@@H]1CCNC1=O)C(O)S(=O)(=O)O` (stereo partly shown) [Compound D3d] were, in that order, more than 10000 nM, 1050 ± 210 nM and more than 50000 nM.
The molecule `CC(C)C[C@H](NC(=O)OCC(C)(C)S(=O)(=O)c1ccccc1)C(=O)N[C@H](C=O)C[C@@H]1CCNC1=O` [Compound D4c] had an EC50 at FMDV 3Cpro [1] of more than 10000 nM. On FMDV 3Cpro [2], this molecule came in with a concentration for half-maximal inhibition (IC50) of 900 ± 280 nM. In the data set “in vitro”, this molecule showed a CC50 of more than 50000 nM.
The like results for `CC(C)C[C@H](NC(=O)OCC(C)(C)S(=O)(=O)c1ccccc1)C(=O)N[C@@H](C[C@@H]1CCNC1=O)C(O)S(=O)(=O)O` (stereo partly shown) [Compound D4d] were, in that order, more than 10000 nM, 650 ± 90 nM and more than 50000 nM.
For `CC(C)C[C@H](NC(=O)OCC(C)(C)Sc1cccc(F)c1)C(=O)N[C@H](C=O)C[C@@H]1CCNC1=O` [Compound D5c], in that order: 1000 ± 280 nM, 3150 ± 490 nM and more than 50000 nM.
For `CC(C)C[C@H](NC(=O)OCC(C)(C)Sc1ccc(F)cc1)C(=O)N[C@H](C=O)C[C@@H]1CCNC1=O` [Compound D6c], in that order: 5150 ± 640 nM, 910 ± 150 nM and more than 50000 nM.
Molecule `CC(C)C[C@H](NC(=O)OCC(C)(C)Sc1ccc(F)cc1)C(=O)N[C@@H](C[C@@H]1CCNC1=O)C(O)S(=O)(=O)O` (stereo partly shown) [Compound D6d] gave a half-maximal effective concentration (EC50) on FMDV 3Cpro [1] of 5850 ± 350 nM. Also, half-maximal inhibition against FMDV 3Cpro [2] (IC50) was put at 980 ± 110 nM. Besides, the CC50 in “in vitro” is more than 50000 nM.
For `CC(C)C[C@H](NC(=O)OCC(C)(C)Sc1cccc(Cl)c1)C(=O)N[C@H](C=O)C[C@@H]1CCNC1=O` [Compound D7c], a half-maximal response on FMDV 3Cpro [1] (EC50) required 1050 ± 210 nM. At FMDV 3Cpro [2], this molecule came in with a half-inhibitory concentration (IC50) of 1500 ± 280 nM. In “in vitro”, the CC50 is more than 50000 nM.
For `CC(C)C[C@H](NC(=O)OCC(C)(C)Sc1cccc(Cl)c1)C(=O)N[C@@H](C[C@@H]1CCNC1=O)C(O)S(=O)(=O)O` (stereo partly shown) [Compound D7d], in that order: 1200 ± 140 nM, 600 ± 10 nM and more than 50000 nM.
For the molecule `CC(C)C[C@H](NC(=O)OCCSc1ccccc1)C(=O)N[C@H](C=O)C[C@@H]1CCNC1=O` [Compound D8c], a half-maximal effect on FMDV 3Cpro [1] (EC50) was put at 1750 ± 210 nM. Moreover, the IC50 on FMDV 3Cpro [2] came to 1350 ± 350 nM. The molecule further displayed a CC50 in “in vitro” of more than 50000 nM.
The like results for `CC(C)C[C@H](NC(=O)OCCSc1ccccc1)C(=O)N[C@@H](C[C@@H]1CCNC1=O)C(O)S(=O)(=O)O` (stereo partly shown) [Compound D8d] were, in that order, 1950 ± 220 nM, 1030 ± 240 nM and more than 50000 nM.
The molecule `CC(C)C[C@H](NC(=O)OCC(C)(C)Sc1nc2ccccc2[nH]1)C(=O)N[C@H](C=O)C[C@@H]1CCNC1=O` [Compound D9c] showed a half-maximal effective concentration (EC50) on FMDV 3Cpro [1] of more than 10000 nM. This molecule also returned an IC50 on FMDV 3Cpro [2] of 2150 ± 340 nM. This molecule also registered a CC50 in the data set “in vitro” of more than 50000 nM.
In turn, `CC(C)C[C@H](NC(=O)OCC(C)(C)Sc1nc2ccccc2[nH]1)C(=O)N[C@@H](C[C@@H]1CCNC1=O)C(O)S(=O)(=O)O` (stereo partly shown) [Compound D9d] had a 50% effective concentration (EC50) at FMDV 3Cpro [1] of more than 10000 nM. For the same molecule, it took 1750 ± 920 nM to reach half-maximal inhibition against FMDV 3Cpro [2] (IC50). Besides, the CC50 in “in vitro” was more than 50000 nM.
For `CC(C)C[C@H](NC(=O)OCC(C)(C)Oc1ccc(Cl)cc1)C(=O)N[C@H](C=O)C[C@@H]1CCNC1=O` [Compound D11c], in that order: 640 ± 150 nM, 690 ± 60 nM and more than 50000 nM.
For `CC(C)C[C@H](NC(=O)OCC(C)(C)Oc1ccc(Cl)cc1)C(=O)N[C@@H](C[C@@H]1CCNC1=O)C(O)S(=O)(=O)O` (stereo partly shown) [Compound D11d], in that order: 980 ± 1110 nM, 490 ± 50 nM and more than 50000 nM.
The like results for `[2H]C([2H])(OC(=O)N[C@@H](CC(C)C)C(=O)N[C@H](C=O)C[C@@H]1CCNC1=O)C(C)(C)Oc1ccc(Cl)cc1` [Compound D12c] were, in that order, 350 ± 100 nM, 140 ± 20 nM and more than 50000 nM.
Take `[2H]C([2H])(OC(=O)N[C@@H](CC(C)C)C(=O)N[C@@H](C[C@@H]1CCNC1=O)C(O)S(=O)(=O)[O-])C(C)(C)Oc1ccc(Cl)cc1.[Na+]` (stereo partly shown) [Compound D12d]: the EC50 at FMDV 3Cpro [1] stood at 430 ± 310 nM. The same molecule had a half-maximal inhibitory concentration (IC50) against FMDV 3Cpro [2] of 190 ± 10 nM. The same molecule showed a CC50 in “in vitro” of more than 50000 nM.
The like results for `CC(C)C[C@H](NC(=O)OCC(C)(C)Oc1cccc(Cl)c1)C(=O)N[C@H](C=O)C[C@@H]1CCNC1=O` [Compound D13c] were, in that order, 5340 ± 1190 nM, 670 ± 80 nM and more than 50000 nM.
For `CC(C)C[C@H](NC(=O)OCC(C)(C)Oc1cccc(Cl)c1)C(=O)N[C@@H](C[C@@H]1CCNC1=O)C(O)S(=O)(=O)O` (stereo partly shown) [Compound D13d], in that order: 7700 ± 850 nM, 650 ± 210 nM and more than 50000 nM.
In turn, `[2H]C([2H])(OC(=O)N[C@@H](CC(C)C)C(=O)N[C@H](C=O)C[C@@H]1CCNC1=O)C(C)(C)Oc1cccc(Cl)c1` [Compound D14c] registered an EC50 on FMDV 3Cpro [1] of 3380 ± 390 nM. This molecule gave a half-inhibitory concentration (IC50) on FMDV 3Cpro [2] of 500 ± 140 nM. For the same molecule, in the data set “in vitro”, the CC50 is more than 50000 nM.
The molecule `[2H]C([2H])(OC(=O)N[C@@H](CC(C)C)C(=O)N[C@@H](C[C@@H]1CCNC1=O)C(O)S(=O)(=O)[O-])C(C)(C)Oc1cccc(Cl)c1.[Na+]` (stereo partly shown) [Compound D14d] returned a concentration for a half-maximal effect (EC50) on FMDV 3Cpro [1] of 4810 ± 3060 nM. In addition, the IC50 against FMDV 3Cpro [2] worked out at 650 ± 70 nM. Moreover, in “in vitro”, the CC50 is more than 50000 nM.
For `CC(C)C[C@H](NC(=O)OCC(C)(C)Oc1ccc(F)cc1)C(=O)N[C@H](C=O)C[C@@H]1CCNC1=O` [Compound D15c], in that order: 5250 ± 640 nM, 450 ± 70 nM and more than 50000 nM.
Molecule `CC(C)C[C@H](NC(=O)OCC(C)(C)Oc1ccc(F)cc1)C(=O)N[C@@H](C[C@@H]1CCNC1=O)C(O)S(=O)(=O)O` (stereo partly shown) [Compound D15d] displayed an EC50 on FMDV 3Cpro [1] of 5900 ± 580 nM. This molecule also came in with an IC50 against FMDV 3Cpro [2] of 550 ± 70 nM. For the same molecule, in “in vitro”, the CC50 is more than 50000 nM.
Molecule `CC(C)C[C@H](NC(=O)OCC(C)(C)Oc1cccc(F)c1)C(=O)N[C@H](C=O)C[C@@H]1CCNC1=O` [Compound D16c] showed a 50% effective concentration (EC50) on FMDV 3Cpro [1] of 4900 ± 370 nM. This molecule had a 50% inhibitory concentration (IC50) at FMDV 3Cpro [2] of 780 ± 30 nM. The molecule further came in with a CC50 in “in vitro” of more than 50000 nM.
The like results for `CC(C)C[C@H](NC(=O)OCC(C)(C)Oc1cccc(F)c1)C(=O)N[C@@H](C[C@@H]1CCNC1=O)C(O)S(=O)(=O)O` (stereo partly shown) [Compound D16d] were, in that order, 5050 ± 210 nM, 690 ± 20 nM and more than 50000 nM.
The like results for `CC(C)C[C@H](NC(=O)[C@H](Cc1cccc2ccccc12)NC(=O)OCc1ccccc1)C(=O)N[C@H](C=O)C[C@@H]1CCNC1=O` [Compound E1] were, in that order, 110 ± 50 nM, 50 ± 80 nM and more than 50000 nM.
The molecule `CC(C)C[C@H](NC(=O)[C@H](Cc1cccc2ccccc12)NC(=O)OCc1ccccc1)C(=O)N[C@@H](C[C@@H]1CCNC1=O)C(=O)C(=O)NC(C)C` [Compound E6] showed a 50% effective concentration (EC50) at FMDV 3Cpro [1] of 150 ± 70 nM. The molecule also gave an IC50 against FMDV 3Cpro [2] of 60 ± 60 nM. For the same molecule, in the data set “in vitro”, the CC50 is more than 50000 nM.
The like results for `CC(C)C[C@H](NC(=O)OCc1ccccc1)C(=O)N[C@@H](C[C@@H]1CCNC1=O)C(=O)C(=O)NC1CC1` [Compound E6b] were, in that order, 8800 ± 300 nM, 2400 ± 90 nM and more than 50000 nM.
For `CCCCNC(=O)C(=O)[C@H](C[C@@H]1CCNC1=O)NC(=O)[C@H](CC(C)C)NC(=O)OCc1ccccc1` [Compound E6c], in that order: 7000 ± 500 nM, 2100 ± 70 nM and more than 50000 nM.
For `CCOC(=O)CNC(=O)C(=O)[C@H](C[C@@H]1CCNC1=O)NC(=O)[C@H](CC(C)C)NC(=O)OCc1ccccc1` [Compound E6d], in that order: 9200 ± 100 nM, 2200 ± 50 nM and more than 50000 nM.
In turn, `CC(C)C[C@H](NC(=O)OCc1ccccc1)C(=O)N[C@@H](C[C@@H]1CCNC1=O)C(=O)C(=O)NC(C)(C)C` [Compound E6g] returned a 50% effective concentration (EC50) on FMDV 3Cpro [1] of 5800 ± 300 nM. In addition, at FMDV 3Cpro [2], it took 1500 ± 100 nM to reach half-maximal inhibition (IC50). The CC50 in “in vitro” was more than 50000 nM.
For `CC(C)C[C@H](NC(=O)OCc1ccccc1)C(=O)N[C@@H](C[C@@H]1CCNC1=O)C(=O)c1ncco1` [Compound E8a], in that order: 8200 ± 90 nM, 3400 ± 80 nM and more than 50000 nM.
For `CC(C)C[C@H](NC(=O)OCc1ccccc1)C(=O)N[C@H](C=O)C[C@@H]1CCNC1=O` [GC373], in that order: 6600 ± 200 nM, 2300 ± 70 nM and more than 50000 nM.
Regarding `N#Cc1cc(-c2ccccc2)[nH]c1-c1nccc2ccccc12` [NSC116640], the “replication of FMDV in cell culture via inhibiting 3Cpro” value with FMDV was “inhibited the replication of FMDV in cell culture”.

Source of the values: article PMC10986521 (Microbiology Spectrum, 2024).
